Results: US9675614B2, “PRMT5 inhibitors and uses thereof” (Epizyme, Inc., priority 2012, dated 2017)

Target: PRMT5/MEP50 (Homo sapiens (Human), UniProt O14744)
Assay: PRMT5 Biochemical Assay (PRMT5/MEP50 enzyme assay on peptide substrate, 3H-SAM Flashplate)
Conditions: PRMT5/MEP50 biochemical assay; read-out: Biochemical IC50
From the text: S-adenosylmethionine (SAM), S-adenosylhomocysteine (SAH), bicine, KCl, Tween20, dimethylsulfoxide (DMSO), bovine skin gelatin (BSG), and Tris(2-carboxyethyl)phosphine hydrochloride solution (TCEP) were purchased from Sigma-Aldrich at the highest level of purity possible. ^3H-SAM was purchase from American Radiolabeled Chemicals with a specific activity of 80 Ci/mmol. 384-well streptavidin Flashplates were purchased from PerkinElmer.
Peptide representative of human histone H4 residues 1-15 was synthesized with a C-terminal linker-affinity tag motif and a C-terminal amide cap by 21st Century Biochemicals. […] The sequence was Ac-[…][K-Biot]amide (SEQ ID NO.:3).
Full-length human MEP50 (NM_024102) clone was amplified from a human testis cDNA library incorporating a 5′ sequence encoding a 6-histidine tag (MHHHHHH) (SEQ ID NO.:5) fused directly to Arg 2 of MEP50. The amplified genes were subcloned into pENTR/D/TEV (Life Technologies) and subsequently transferred by Gateway™ attL×attR recombination to pDEST8 baculvirus expression vector (Life Technologies).
Recombinant baculovirus and Baculovirus-Infected Insect Cells (BIIC) were generated according to Bac-to-Bac kit instructions (Life Technologies) and Wasilko, 2006, respectively. Protein over-expression was accomplished by infecting exponentially growing Spodoptera frugiperda (SF9) cell culture at 1.2×10^6 cell/ml with a 5000 fold dilution of BIIC stock. Infections were carried out at 27° C. for 72 hours, harvested by centrifugation, and stored at −80° C. for purification.
Flag-PRMT5/6His-MeP50 was eluted with 300 mM Imidazole in the same buffer. […] Reference: Wasilko, D. J. and S. E. Lee: “TIPS: titerless infected-cells preservation and scale-up” Bioprocess J., 5 (2006), pp. 29-32.
General Procedure for PRMT5/MEP50 Enzyme Assays on Peptide Substrates.
The assays were all performed in a buffer consisting of 20 mM Bicine (pH=7.6), 1 mM TCEP, 0.005% BSG, and 0.002% Tween20, prepared on the day of use. Compounds in 100% DMSO (1 ul) were spotted into a polypropylene 384-well V-bottom plates (Greiner) using a Platemate Plus outfitted with a 384-channel head (Thermo Scientific). DMSO (1 ul) was added to Columns 11, 12, 23, 24, rows A-H for the maximum signal control and 1 ul of SAH, a known product and inhibitor of PRMT5/MEP50, was added to columns 11, 12, 23, 24, rows I-P for the minimum signal control. A cocktail (40 ul) containing the PRMT5/MEP50 enzyme and the peptide was added by Multidrop Combi (Thermo-Fisher). The compounds were allowed to incubate with PRMT5/MEP50 for 30 min at 25 degrees Celsius, then a cocktail (10 ul) containing ^3H-SAM was added to initiate the reaction (final volume=51 ul). The final concentrations of the components were as follows: PRMT5/MEP50 was 4 nM, ^3H-SAM was 75 nM, peptide was 40 nM, SAH in the minimum signal control wells was 100 uM, and the DMSO concentration was 1%. The assays were stopped by the addition of non-radioactive SAM (10 ul) to a final concentration of 600 uM, which dilutes the ^3H-SAM to a level where its incorporation into the peptide substrate is no longer detectable. 50 ul of the reaction in the 384-well polypropylene plate was then transferred to a 384-well Flashplate and the biotinylated peptides were allowed to bind to the streptavidin surface for at least 1 hour before being washed three times with 0.1% Tween20 in a Biotek ELx405 plate washer. The plates were then read in a PerkinElmer TopCount plate reader to measure the quantity of ^3H-labeled peptide bound to the Flashplate surface, measured as disintegrations per minute (dpm) or alternatively, referred to as counts per minute (cpm).
[formula] Where dpm=disintegrations per minute, cmpd=signal in assay well, and min and max are the respective minimum and maximum signal controls.
[formula] Where top and bottom are the normally allowed to float, but may be fixed at 100 or 0 respectively in a 3-parameter fit.

Sequence of PRMT5/MEP50 (O14744 other isoform, or with tags, fused parts or gaps): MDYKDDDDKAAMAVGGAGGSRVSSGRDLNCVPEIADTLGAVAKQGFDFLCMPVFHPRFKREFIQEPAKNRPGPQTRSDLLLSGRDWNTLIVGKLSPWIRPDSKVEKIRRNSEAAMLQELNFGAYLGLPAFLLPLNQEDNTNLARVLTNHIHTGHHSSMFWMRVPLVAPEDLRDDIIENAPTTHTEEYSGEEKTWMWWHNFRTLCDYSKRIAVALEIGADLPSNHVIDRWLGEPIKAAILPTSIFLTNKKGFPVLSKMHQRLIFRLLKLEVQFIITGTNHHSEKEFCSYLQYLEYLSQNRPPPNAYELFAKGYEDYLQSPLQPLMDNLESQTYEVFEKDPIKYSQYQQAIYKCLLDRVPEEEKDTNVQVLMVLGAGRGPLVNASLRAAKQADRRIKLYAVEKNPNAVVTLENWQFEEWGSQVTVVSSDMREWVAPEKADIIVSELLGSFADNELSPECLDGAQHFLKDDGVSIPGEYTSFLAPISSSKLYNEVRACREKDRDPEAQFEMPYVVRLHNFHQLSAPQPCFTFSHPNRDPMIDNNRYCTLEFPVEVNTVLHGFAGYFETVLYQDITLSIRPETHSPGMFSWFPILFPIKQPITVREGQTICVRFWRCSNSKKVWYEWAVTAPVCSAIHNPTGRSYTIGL
Sequence of PRMT5/MEP50 (Q9BQA1 other isoform, or with tags, fused parts or gaps partner): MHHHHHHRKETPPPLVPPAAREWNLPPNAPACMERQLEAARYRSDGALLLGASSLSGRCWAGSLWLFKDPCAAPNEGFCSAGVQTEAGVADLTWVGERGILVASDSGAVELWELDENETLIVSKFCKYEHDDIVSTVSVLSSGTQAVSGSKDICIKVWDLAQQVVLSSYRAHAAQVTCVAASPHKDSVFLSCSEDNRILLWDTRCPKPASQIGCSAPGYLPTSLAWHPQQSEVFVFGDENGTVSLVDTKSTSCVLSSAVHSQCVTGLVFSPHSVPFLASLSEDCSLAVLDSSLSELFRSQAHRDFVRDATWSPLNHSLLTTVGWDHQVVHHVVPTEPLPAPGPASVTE

`O=C(NCC(O)CN1CCc2ccccc2C1)c1cc(Cl)cc(NC2CCOCC2)c1` (centres unmarked) [Compound 64] and `O=C(NCC(O)CN1CCc2ccccc2C1)c1cc(F)cc(NC2CCOCC2)c1` (centres unmarked) [Compound 78] cannot be ordered by IC50: less than 100 nM for the first, less than 100 nM for the second.

First: O=C(NCC(O)CN1CCc2ccccc2C1)c1ccc(F)c(NC2CCOCC2)c1 (centres unmarked) [Compound 65]
Second: COc1ccc(C(=O)NCC(O)CN2CCc3ccccc3C2)cc1NC1CCOCC1 (centres unmarked) [Compound 67]
The IC50 of the first is lower: less than 100 nM for the first, 101 to 1000 nM for the second.

First: O=C(NCC(O)CN1CCc2ccccc2C1)c1ccc(NC2CCOCC2)cc1 (centres unmarked) [Compound 66]
Second: Cc1ccc(NC2CCOCC2)cc1C(=O)NCC(O)CN1CCc2ccccc2C1 (centres unmarked) [Compound 95]
The IC50 of the first is lower: less than 100 nM for the first, 101 to 1000 nM for the second.

`O=C(NCC(O)CN1CCc2ccccc2C1)c1ccc2ncccc2c1` (centres unmarked) [Compound 68] and `Cc1ccc2cc(C(=O)NCC(O)CN3CCc4ccccc4C3)ccc2n1` (centres unmarked) [Compound 84, N-(3-(3,4-dihydroisoquinolin-2(1H)-yl)-2-hydroxypropyl)-2-methylquinoline-6-carboxamide] cannot be ordered by IC50: less than 100 nM for the first, less than 100 nM for the second.

`COCCCNc1cccc(C(=O)NCC(O)CN2CCc3ccccc3C2)c1` (centres unmarked) [Compound 69] and `COCCNc1cccc(C(=O)NCC(O)CN2CCc3ccccc3C2)c1` (centres unmarked) [Compound 72] fall in the same range of IC50: 101 to 1000 nM for the first, 101 to 1000 nM for the second.

First: COCCCNc1cccc(C(=O)NCC(O)CN2CCc3ccccc3C2)c1 (centres unmarked) [Compound 70]
Second: O=C(NCC(O)CN1CCc2ccccc2C1)c1cccc(NCCCO)c1 (centres unmarked) [Compound 87]
The IC50 of the first is lower: 101 to 1000 nM for the first, 1000 to 10000 nM for the second.

First: CN(CC(O)CN1CCc2ccccc2C1)C(=O)c1cccc(NC2CCOCC2)c1 (centres unmarked) [Compound 71]
Second: CN(C[C@H](O)CN1CCc2ccccc2C1)C(=O)c1cccc(NC2CCOCC2)c1 [Compound 111]
The IC50 of the first is higher: 101 to 1000 nM for the first, less than 100 nM for the second. The second is the more potent here.

First: O=C(NCC(O)CN1CCc2ccccc2C1)c1cccc(NC2CCOCC2)n1 (centres unmarked) [Compound 73]
Second: O=C(NCC(O)CN1CCc2ccccc2C1)c1cncc(NC2CCOCC2)n1 (centres unmarked) [Compound 75]
The IC50 of the first is lower: less than 100 nM for the first, 101 to 1000 nM for the second.

Compared with `O=C(NCC(O)CN1CCc2ccccc2C1)c1ccnc(NC2CCOCC2)c1` (centres unmarked) [Compound 74], `O=C(NCC(O)CN1CCc2ccccc2C1)c1nccc(NC2CCOCC2)n1` (centres unmarked) [Compound 76] is higher in IC50: less than 100 nM for the first, 101 to 1000 nM for the second.

`COc1ccc(NC2CCOCC2)cc1C(=O)NCC(O)CN1CCc2ccccc2C1` (centres unmarked) [Compound 77] and `Cc1ccc(NC2CCOC2)cc1C(=O)NCC(O)CN1CCc2ccccc2C1` (centres unmarked) [Compound 96] cannot be ordered by IC50: less than 100 nM for the first, less than 100 nM for the second.

`O=C(NCC(O)CN1CCc2ccccc2C1)c1cccc(NC2CCOCC2)c1F` (centres unmarked) [Compound 79] and `O=C(NC[C@H](O)CN1CCc2ccccc2C1)c1cccc(OC2CCOCC2)c1` [Compound 82] cannot be ordered by IC50: less than 100 nM for the first, less than 100 nM for the second.

`O=C(NC[C@H](O)CN1CCc2ccccc2C1)c1cccc(NC2CCOC2)c1` (some centres unmarked) [Compound 80] and `O=C(NC[C@@H](O)CN1CCc2ccccc2C1)c1cccc(NC2CCOC2)c1` (some centres unmarked) [Compound 81] cannot be ordered by IC50: less than 100 nM for the first, less than 100 nM for the second.

First: O=C(NC[C@@H](O)CN1CCc2ccccc2C1)c1cccc(OC2CCOCC2)c1 [Compound 83]
Second: O=C(NCC(O)CN1CCc2ccccc2C1)c1cccc(C2CCOCC2)c1 (centres unmarked) [Compound 99]
The IC50 of the first is higher: 101 to 1000 nM for the first, less than 100 nM for the second. The second is the more potent here.

`O=C(NCC(O)CN1CCc2ccccc2C1)c1ccc2nccnc2c1` (centres unmarked) [Compound 85] and `O=C(NCC(O)CN1CCc2ccccc2C1)c1ccc2c(c1)OCCN2` (centres unmarked) [Compound 88] fall in the same range of IC50: 101 to 1000 nM for the first, 101 to 1000 nM for the second.

Compared with `CC1=NN(c2ccc(C(=O)NCC(O)CN3CCc4ccccc4C3)cc2)C(=O)C1` (centres unmarked) [Compound 86], `O=C(NCC(O)CN1CCc2ccccc2C1)c1ccc(-n2cncn2)cc1` (centres unmarked) [Compound 110] is lower in IC50: 101 to 1000 nM for the first, less than 100 nM for the second.

`O=C1COc2cc(C(=O)NCC(O)CN3CCc4ccccc4C3)ccc2N1` (centres unmarked) [Compound 89] and `O=C(NCC(O)CN1CCc2ccccc2C1)c1cccc(NC2CCNC2)c1` (centres unmarked) [Compound 93] fall in the same range of IC50: 101 to 1000 nM for the first, 101 to 1000 nM for the second.

`CCN1CCN(Cc2cccc(C(=O)NCC(O)CN3CCc4ccccc4C3)c2)CC1` (centres unmarked) [Compound 90] and `O=C(NCC(O)CN1CCc2ccccc2C1)c1cccc(CN2CCN(CCO)CC2)c1` (centres unmarked) [Compound 113] cannot be ordered by IC50: less than 100 nM for the first, less than 100 nM for the second.

`CS(=O)(=O)N1CCN(Cc2cccc(C(=O)NCC(O)CN3CCc4ccccc4C3)c2)CC1` (centres unmarked) [Compound 91] and `CC(=O)N1CCN(Cc2cccc(C(=O)NCC(O)CN3CCc4ccccc4C3)c2)CC1` (centres unmarked) [Compound 100] cannot be ordered by IC50: less than 100 nM for the first, less than 100 nM for the second.

`O=C(NCC(O)CN1CCc2ccccc2C1)c1cccc(CN2CCN(CC(F)(F)F)CC2)c1` (centres unmarked) [Compound 92] and `COCCN1CCN(Cc2cccc(C(=O)NCC(O)CN3CCc4ccccc4C3)c2)CC1` (centres unmarked) [Compound 114] cannot be ordered by IC50: less than 100 nM for the first, less than 100 nM for the second.

`O=C(NCC(O)CN1CCc2ccccc2C1)c1cccc(NC2CCNCC2)c1` (centres unmarked) [Compound 94] and `CN1CCC(Nc2cccc(C(=O)NCC(O)CN3CCc4ccccc4C3)c2)CC1` (centres unmarked) [Compound 123] cannot be ordered by IC50: less than 100 nM for the first, less than 100 nM for the second.

`Cc1ccc(NC2COC2)cc1C(=O)NCC(O)CN1CCc2ccccc2C1` (centres unmarked) [Compound 97] and `O=C(NCC(O)CN1CCc2ccccc2C1)c1cccc(NC2CCOCC2O)c1` (centres unmarked) [Compound 98] cannot be ordered by IC50: less than 100 nM for the first, less than 100 nM for the second.

`CC(C)N1CCC(Nc2cccc(C(=O)NCC(O)CN3CCc4ccccc4C3)c2)C1` (centres unmarked) [Compound 101] and `CC(C)N1CCC(Nc2cccc(C(=O)NCC(O)CN3CCc4ccccc4C3)c2)CC1` (centres unmarked) [Compound 103] cannot be ordered by IC50: less than 100 nM for the first, less than 100 nM for the second.

`O=C(NCC(O)CN1CCc2ccccc2C1)c1cccc(NC2CCN(CC(F)(F)F)C2)c1` (centres unmarked) [Compound 102] and `O=C(NCC(O)CN1CCc2ccccc2C1)c1cccc(NC2CCN(CC(F)(F)F)CC2)c1` (centres unmarked) [Compound 126] cannot be ordered by IC50: less than 100 nM for the first, less than 100 nM for the second.

`O=C(NCC(O)CN1CCc2ccccc2C1)c1ccc(OC2CCNCC2)cc1` (centres unmarked) [Compound 104] and `CN1CCC(Oc2ccc(C(=O)NCC(O)CN3CCc4ccccc4C3)cc2)CC1` (centres unmarked) [Compound 105] cannot be ordered by IC50: less than 100 nM for the first, less than 100 nM for the second.

`CC(C)N1CCC(Oc2ccc(C(=O)NCC(O)CN3CCc4ccccc4C3)cc2)CC1` (centres unmarked) [Compound 106] and `CC(=O)N1CCC(Oc2ccc(C(=O)NCC(O)CN3CCc4ccccc4C3)cc2)CC1` (centres unmarked) [Compound 107] cannot be ordered by IC50: less than 100 nM for the first, less than 100 nM for the second.

`CS(=O)(=O)N1CCC(Oc2ccc(C(=O)NCC(O)CN3CCc4ccccc4C3)cc2)CC1` (centres unmarked) [Compound 108] and `O=C(NCC(O)CN1CCc2ccccc2C1)c1ccc(OC2CCN(CC(F)(F)F)CC2)cc1` (centres unmarked) [Compound 109] cannot be ordered by IC50: less than 100 nM for the first, less than 100 nM for the second.

First: O=C(NCC(O)CN1CCc2ccccc2C1)c1cn[nH]c1-c1ccccc1 (centres unmarked) [Compound 112]
Second: O=C(NCC(O)CN1CCc2ccccc2C1)c1cccc(OC2CCNC2)c1 (centres unmarked) [Compound 119]
The IC50 of the first is higher: 101 to 1000 nM for the first, less than 100 nM for the second.

First: CN1CCN(Cc2cccc(C(=O)NCC(O)CN3CCc4ccccc4C3)c2)C(CO)C1 (centres unmarked) [Compound 115]
Second: CNC(=O)CNCc1cccc(C(=O)NCC(O)CN2CCc3ccccc3C2)c1 (centres unmarked) [Compound 117]
The IC50 of the first is lower: less than 100 nM for the first, 101 to 1000 nM for the second.

First: NC(=O)CNCc1cccc(C(=O)NCC(O)CN2CCc3ccccc3C2)c1 (centres unmarked) [Compound 116]
Second: CN(C)C(=O)CNCc1cccc(C(=O)NCC(O)CN2CCc3ccccc3C2)c1 (centres unmarked) [Compound 118]
The IC50 of the first is higher: 101 to 1000 nM for the first, less than 100 nM for the second.

`CC(=O)N1CCC(Nc2cccc(C(=O)NCC(O)CN3CCc4ccccc4C3)c2)C1` (centres unmarked) [Compound 121] and `CC(=O)N1CCC(Nc2cccc(C(=O)NCC(O)CN3CCc4ccccc4C3)c2)CC1` (centres unmarked) [Compound 124] cannot be ordered by IC50: less than 100 nM for the first, less than 100 nM for the second.

`CS(=O)(=O)N1CCC(Nc2cccc(C(=O)NCC(O)CN3CCc4ccccc4C3)c2)C1` (centres unmarked) [Compound 122] and `CS(=O)(=O)N1CCC(Nc2cccc(C(=O)NCC(O)CN3CCc4ccccc4C3)c2)CC1` (centres unmarked) [Compound 125] cannot be ordered by IC50: less than 100 nM for the first, less than 100 nM for the second.
